Test results published in patent US9994528B2, “Certain amino-pyridines and amino-triazines, compositions thereof, and methods for their use” (Cytokinetics, Inc., priority 2010, dated 2018).

System: rabbit skeletal myofibrils (approximately 90% fast fibers)
Experiment: Activation of fast skeletal myofibrils (PUMA coupled-enzyme ATPase assay)
Format: biochemical
Settings: AC1.4 = concentration at which the compound increased the enzymatic activity by 40%; myofibril suspension at calcium level pCa25; PM12 buffer pH 6.8
Procedure: Preparation of fast skeletal myofibrils. Rabbit skeletal myofibrils were prepared based upon the method of Herrmann et al. (Biochem. 32(28):7255-7263(1993). Myofibrils were prepared from rabbit psoas muscle purchased from Pel-Freez Biologicals (Arkansas) within 2 days of ordering, stored on ice. Minced muscle was homogenized in 10 volumes of ice-cold “standard” buffer (50 mM Tris, pH 7.4, 0.1 M potassium acetate, 5 mM KCl, 2 mM DTT, 0.2 mM PMSF, 10 μM leupeptin, 5 μM pepstatin, and 0.5 mM sodium azide) containing 5 mM EDTA and 0.5% Triton X-100 using an Omni-Macro homogenizer. Myofibrils were recovered by low speed centrifugation (3000 rpm for 10 minutes) and washed 2 times in the Triton X-100 containing buffer to ensure removal of cellular membrane. Following the Triton washes, myofibrils were washed 3 times in “standard” buffer containing 2 mM magnesium acetate. A final wash in assay buffer (12 mM PIPES, pH 6.8, 60 mM KCl, 1 mM DTT) was performed and brought to 10% sucrose for flash freezing in liquid nitrogen and storage at −80° C.
Activation of Fast Skeletal Myofibrils. Fast fiber activators were identified by measuring the enzymatic activity of muscle myofibril preparations using the proprietary PUMA™ (see, e.g., U.S. Pat. Nos. 6,410,254, 6,743,599, 7,202,051, and 7,378,254) assay system. Myofibril preparations consisted of rabbit skeletal muscle (approximately 90% fast fibers) that had been mechanically homogenized and washed with a detergent (triton X-100) to remove cellular membranes. This preparation retained all of the sarcomeric components in a native conformation and the enzymatic activity was still regulated by calcium. Compounds were tested using a myofibril suspension and a level of calcium sufficient to increase enzymatic activity of the myofibrils to 25% of their maximal rate (termed pCa25). Enzymatic activity was tracked via a pyruvate kinase and lactate dehydrogenase-coupled enzyme system. This assay regenerates myosin-produced ADP into ATP by oxidizing NADH, producing an absorbance change at 340 nm. The buffering system was 12 mM Pipes, 2 mM MgCl2, 1 mM DTT at pH 6.8 (PM12 buffer).
Using procedures similar to those described herein, utilizing reagents and intermediates commercially available (e.g., Sigma-Aldrich,) or readily synthesized by one of skill in the art, the compounds in Table 2 were synthesized, characterized and tested. AC1.4 values were determined according to the procedure described in Example 25, and the reported median AC1.4 values are as follows: A=<1 uM; B=1-10 uM; C=10-20 uM; D=>20 uM.

Row | Structure (SMILES) | Mean AC1.4
1 | NC(=O)c1ccc(F)c(-c2cnc(NC[C@]3(c4ncccc4F)C[C@H](F)C3)nn2)c1 [4-fluoro-3-[3-({[3-fluoro-1-(3-fluoro(2-pyridyl))cyclobutyl]methyl}amino)(1,2,4-triazin-6-yl)]benzamide] | A (A=<1 uM)
2 | CC(C)(CNc1ccc(C(N)=O)cn1)c1ccc(F)cc1 [6-{[2-(4-f1uorophenyl)-2-methylpropyl]amino}pyridine-3-carboxamide] | C (C=10-20 uM)
3 | CC(C)(CNc1ccc(C#N)cn1)c1ccc(F)cc1 [6-{[2-(4-fluorophenyl)-2-methylpropyl]amino}pyridine-3-carbonitrile] | C (C=10-20 uM)
4 | c1ccc(-c2ccnc(NC3(c4ccccc4)CCC3)c2)cc1 [(4-phenyl(2-pyridyl))(phenylcyclobutyl)amine] | C (C=10-20 uM)
5 | c1ccc(-c2ccc(NC3(c4ccccc4)CCC3)nc2)cc1 [(5-phenyl(2-pyridyl))(phenylcyclobutyl)amine] | B (B=1-10 uM)
6 | CC(C)(CNc1ncc(-c2ccc3[nH]ncc3c2)nn1)c1ncccc1F [(6-(1H-indazol-5-yl)(1,2,4-triazin-3-yl))[2-(3-fluoro(2-pyridyl))-2-methylpropyl]amine] | C (C=10-20 uM)
7 | Fc1cccnc1C1(CNc2ncc(-c3ccc4[nH]ncc4c3)nn2)CCC1 [(6-(1H-indazol-5-yl)(1,2,4-triazin-3-yl)){[(3-fluoro(2-pyridyl))cyclobutyl]methyl}amine] | B (B=1-10 uM)
8 | CC(C)(CNc1cccc(Br)n1)c1ccc(F)cc1 [(6-bromo(2-pyridyl))[2-(4-fluorophenyl)-2-methylpropyl]amine] | C (C=10-20 uM)
9 | c1ccc(-c2cccc(NC3(c4ccccc4)CCC3)n2)cc1 [(6-phenyl(2-pyridyl))(phenylcyclobutyl)amine] | D (D=>20 uM)
10 | CC(=O)NCc1cnc(-c2cnc(NC[C@]3(c4ncccc4F)C[C@H](F)C3)nn2)s1 [N-({2-[3-({[3-fluoro-1-(3-fluoro(2-pyridyl))cyclobutyl]methyl}amino)-1,2,4-triazin-6-yl]-1,3-thiazol-5-yl}methyl)acetamide] | B (B=1-10 uM)
11 | COC(=O)NCCc1ccc(NCC(C)(C)c2ccc(F)cc2)nc1 [N-[2-(6-{[2-(4-fluorophenyl)-2-methylpropyl]amino}(3-pyridyl))ethyl]methoxycarboxamide] | D (D=>20 uM)
12 | CC(=O)NCCc1ccc(NCC(C)(C)c2ccc(F)cc2)nc1 [N-[2-(6-{[2-(4-fluorophenyl)-2-methylpropyl]amino}-3-pyridyl)ethyl]acetamide] | D (D=>20 uM)
13 | COC(=O)NCc1ccc(NCC(C)(C)c2ccc(F)cc2)nc1 [N-[(6-{[2-(4-fluorophenyl)-2-methylpropyl]amino}(3-pyridyl))methyl]methoxycarboxamide] | D (D=>20 uM)
14 | CC(=O)NCc1cnc(-c2cnc(NC(C)(C)c3ncccc3Cl)nn2)s1 [N-{[2-(3-{[1-(3-chloro(2-pyridyl))-isopropyl]amino}-1,2,4-triazin-6-yl)-1,3-thiazol-5-yl]methyl}acetamide] | D (D=>20 uM)
15 | CC(C)(Nc1ncc(-c2ncc(CO)s2)nn1)c1ncccc1Cl [[2-(3-{[1-(3-chloro(2-pyridyl))-isopropyl]amino}-1,2,4-triazin-6-yl)-1,3-thiazol-5-yl]methan-1-ol] | D (D=>20 uM)
16 | CC(C)=Cc1cccc(NCC(C)(C)c2ccc(F)cc2)n1 [[2-(4-fluorophenyl)-2-methylpropyl][6-(2-methylprop-1-enyl)(2-pyridyl)]amine] | D (D=>20 uM)
17 | CC(C)(CNc1ccc(CCNS(C)(=O)=O)cn1)c1ccc(F)cc1 [[2-(6-{[2-(4-fluorophenyl)-2-methylpropyl]amino}(3-pyridyl))ethyl](methylsulfonyl)amine] | D (D=>20 uM)
18 | CC(C)(CNc1cc(-c2ccc(F)cc2)ccn1)c1ccc(F)cc1 [[4-(4-fluorophenyl)(2-pyridyl)][2-(4-fluorophenyl)-2-methylpropyl]amine] | D (D=>20 uM)
19 | CC(C)(CNc1ncc(-c2ccc3[nH]nc(N)c3c2)nn1)c1ccc(F)cc1 [[6-(3-amino(1H-indazol-5-yl))(1,2,4-triazin-3-yl)][2-(4-fluorophenyl)-2-methylpropyl]amine] | A (A=<1 uM)
20 | Nc1n[nH]c2ccc(-c3cnc(NCC4(c5ncccc5F)CCC4)nn3)cc12 [[6-(3-amino(1H-indazol-5-yl))(1,2,4-triazin-3-yl)]{[(3-fluoro(2-pyridyl))cyclobutyl]methyl}amine] | B (B=1-10 uM)
21 | CC(C)(CNc1cccc(-c2ccc(F)cc2)n1)c1ccc(F)cc1 [[6-(4-fluorophenyl)(2-pyridyl)][2-(4-fluorophenyl)-2-methylpropyl]amine] | D (D=>20 uM)
22 | COC(=O)c1ccc(F)c(-c2cnc(NCC3(c4ncccc4Cl)CCC3)nn2)c1 [methyl 3-[3-({[(3-chloro(2-pyridyl))cyclobutyl]methyl}amino)(1,2,4-triazin-6-yl)]-4-fluorobenzoate] | B (B=1-10 uM)

More lines, now with the values ahead:

Row | Mean AC1.4 | Structure (SMILES)
23 | D (D=>20 uM) | CC(C)(Nc1ncc(-c2cc(C(N)=O)ccc2F)nn1)c1cccc(S(C)(=O)=O)c1 [4-fluoro-3-[3-({1-methyl-1-[3-(methylsulfonyl)phenyl]ethyl}amino)(1,2,4-triazin-6-yl)]benzamide]
24 | B (B=1-10 uM) | O=C(O)c1ccc(F)c(-c2cnc(NCC3(c4ncccc4F)CCC3)nn2)c1 [4-fluoro-3-[3-({[(3-fluoro(2-pyridyl))cyclobulyl]methyl}amino)(1,2,4-triazin-6-yl)]benzoic acid]
25 | A (A=<1 uM) | NC(=O)c1ccc(F)c(-c2cnc(NCC3(c4ncccc4F)CCC3)nn2)c1 [4-fluoro-3-[3-({[(3-fluoro(2-pyridyl))cyclobutyl]methyl}amino)(1,2,4-triazin-6-yl)]benzamide]
26 | B (B=1-10 uM) | CC(C)(Nc1ncc(-c2ccc3[nH][nH]c(=O)c3c2)nn1)c1ncccc1F [5-(3-{[1-(3-fluoro(2-pyridyl))-isopropyl]amino}-1,2,4-triazin-6-yl)-1H-2-hydroindazol-3-one]
27 | C (C=10-20 uM) | CC(C)(Nc1ncc(-c2cc(C(=O)NC[C@H](O)CO)ccc2F)nn1)c1ncccc1F [N-((2S)-2,3-dihydroxypropyl)[4-fluoro-3-(3-{[1-(3-fluoro(2-pyridyl))-isopropyl]amino}(1,2,4-triazin-6-yl))phenyl]carboxamide]
28 | D (D=>20 uM) | CC(=O)NCc1ccc(F)c(-c2cnc(NC(C)(C)c3ncccc3F)nn2)c1 [N-{[4-fluoro-3-(3-{[1-(3-fluoro(2-pyridyl))-isopropyl]amino}(1,2,4-triazin-6-yl))phenyl]methyl}acetamide]
29 | D (D=>20 uM) | CC(C)(Nc1ncc(-c2nccs2)nn1)c1ncccc1F [[1-(3-fluoro(2-pyridyl))-isopropyl](6-(1,3-thiazol-2-yl)(1,2,4-triazin-3-yl))amine]
30 | C (C=10-20 uM) | CC(C)(Nc1ncc(-c2cc(NS(C)(=O)=O)ccc2F)nn1)c1ncccc1F [[4-fluoro-3-(3-{[1-(3-fluoro(2-pyridyl))-isopropyl]amino}(1,2,4-triazin-6-yl))phenyl](methylsulfonyl)amine]
31 | C (C=10-20 uM) | CC(C)(Nc1ncc(-c2cc(CO)ccc2F)nn1)c1ncccc1F [[4-fluoro-3-(3-{[1-(3-fluoro(2-pyridyl))-isopropyl]amino}(1,2,4-triazin-6-yl))phenyl]methan-1-ol]
32 | B (B=1-10 uM) | CC(C)(Nc1ncc(-c2cc(N)ccc2F)nn1)c1ncccc1F [[6-(3-amino-6-fluorophenyl)(1,2,4-triazin-3-yl)][1-(3-fluoro(2-pyridyl))-isopropyl]amine]
33 | B (B=1-10 uM) | CC(C)(Nc1ncc(-c2cc(NS(N)(=O)=O)ccc2F)nn1)c1ncccc1F [amino[4-fluoro-3-(3-{[1-(3-fluoro(2-pyridyl))-isopropyl]amino}(1,2,4-triazin-6-yl))phenyl]sulfonamide]
34 | D (D=>20 uM) | COC(=O)c1ccc(F)c(-c2cnc(NCC(C)(C)c3ncccc3Cl)nn2)c1 [methyl 3-(3-{[2-(3-chloro(2-pyridyl))-2-methylpropyl]amino}(1,2,4-triazin-6-yl))-4-fluorobenzoate]
35 | D (D=>20 uM) | COC(=O)c1ccc(-c2cnc(NC(C)(C)c3ncccc3F)nn2)c(F)c1 [methyl 3-fluoro-4-(3-{[1-(3-fluoro(2-pyridyl))-isopropyl]amino}(1,2,4-triazin-6-yl))benzoate]
